Measured values reported in patent US11572398B2, “GLP-1 derivatives and uses thereof” (Novo Nordisk A/S, priority 2014, dated 2023).
Where two headings read alike, the source gives them in different places. Non-standard residues stand in square brackets, D forms with d. Residues, ends and D or L forms follow the SMILES beside them. *: point of attachment. X1 = O=C(O)CCCCCCCCCCCCCCCCCCC(=O)NC[C@H]1CC[C@H](C(=O)N[C@@H](CCC(=O)NCCOCCOCC(=O)NCCOCCOCC(=O)NCCOCCOCC(=O)NCCOCCOCC(=O)NCCOCCOCC(=O)NCCOCCOCC(=O)NCCCN(CCCNC(=O)COCCOCCNC(=O)COCCOCCNC(=O)COCCOCCNC(=O)COCCOCCNC(=O)COCCOCCNC(=O)COCCOCCNC(=O)CC[C@H](NC(=O)[C@H]2CC[C@H](CNC(=O)CCCCCCCCCCCCCCCCCCC(=O)O)CC2)C(=O)O)CC(=O)*)C(=O)O)CC1; Aib = CC(C)(N)C(=O)O

How the values were obtained:
human GLP-1 receptor [1] = biological target: T1, human GLP-1 receptor (Homo sapiens, UniProt P43220); assay: In vitro potency: CRE luciferase reporter gene assay in BHK cells expressing the human GLP-1 receptor; type: cell-based; details: whole cell reporter gene assay, BHK cells, human GLP-1 receptor; average of at least two replicates; read-out: EC50
T1 construct: expressed in transfected cells; host or cells: BHK cells (parent line BHKTS13), clone FCW467-12A; membrane preparation
T1 sequence (P43220 24-463): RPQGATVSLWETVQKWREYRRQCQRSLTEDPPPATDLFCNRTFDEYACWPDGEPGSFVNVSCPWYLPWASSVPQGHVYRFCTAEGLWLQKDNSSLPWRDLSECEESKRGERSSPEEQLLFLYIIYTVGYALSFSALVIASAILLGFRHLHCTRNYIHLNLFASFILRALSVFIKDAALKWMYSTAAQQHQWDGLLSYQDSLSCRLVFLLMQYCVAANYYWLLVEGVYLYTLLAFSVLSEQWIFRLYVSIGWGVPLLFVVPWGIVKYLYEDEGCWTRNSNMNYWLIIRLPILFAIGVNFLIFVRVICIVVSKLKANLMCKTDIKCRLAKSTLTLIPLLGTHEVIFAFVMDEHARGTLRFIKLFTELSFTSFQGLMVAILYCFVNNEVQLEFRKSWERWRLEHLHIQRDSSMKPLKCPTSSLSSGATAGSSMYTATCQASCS
Procedure, shortened: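 Whole-cell assay in stably transfected BHK cells carrying CRE-driven firefly luciferase, 5×10^3 cells/well, in assay buffer with 2% ovalbumin and 0.2% Pluronic F-68. Compound working solutions were 0.2 μM.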

[2] = Pharmacokinetic study in minipigs (i.v.); details: male, Göttingen, minipig, in vivo, iv
Protocol: (§1) The purpose of this study is to determine the protraction in vivo of the GLP-1 derivatives after i.v. administration to minipigs, i.e. the prolongation of their time in the body and thereby their time of action. This is done in a pharmacokinetic (PK) study, where the terminal half-life of the derivative in question is determined. By terminal half-life is meant the time it takes to halve a certain plasma concentration in the terminal elimination phase.
(§2) Male Göttingen minipigs were obtained from Ellegaard Göttingen Minipigs (Dalmose, Denmark) approximately 7-14 months of age and weighing approximately 16-35 kg were used in the studies. The minipigs were housed either individually (pigs with permanent catheters) or in a group and fed restrictedly once or twice daily with SDS minipig diet (Special Diets Services, Essex, UK).
(§3) After at least 2 weeks of acclimatisation two permanent central venous catheters were implanted in vena cava caudalis or cranialis in each animal. The animals were allowed 1 week recovery after the surgery, and were then used for repeated pharmacokinetic studies with a suitable wash-out period between successive GLP-1 derivative dosings.
(§4) Blood samples (for example 0.8 ml) were collected in EDTA buffer (8 mM) and then centrifuged at 4° C. and 1942G for 10 minutes.
(§5) Plasma was pipetted into Micronic tubes on dry ice, and kept at −20° C. until analysed for plasma concentration of the respective GLP-1 compound using LOCI. Individual plasma concentration-time profiles were analyzed by a non-compartmental pharmacokinetic method in Phoenix v. 6.2 (Pharsight Inc., Mountain View, Calif., USA), or other relevant software for PK analysis, and the resulting terminal half-lives (harmonic mean) determined.

human GLP-1 receptor [3] = biological target: T1, human GLP-1 receptor; assay: GLP-1 receptor binding: competitive binding assay (125I-GLP-1, SPA) on isolated membranes at low and high HSA
in vivo = details: male, Göttingen, minipig, iv
Protocol: as §1, §2, §3, §4, §5

[4] = high HSA (2.0% final assay concentration), read-out: High HSA IC50
[5] = low HSA (max. 0.001% final assay concentration), read-out: Low HSA IC50

SMILES | EC50 (human GLP-1 receptor [1]) | half-life ([2]; 5 nmol/kg) | IC50 (human GLP-1 receptor [3]; Low HSA IC50, low HSA (max. 0.001% final assay concentration)) | IC50 (human GLP-1 receptor [3]; [4]) | IC50 (human GLP-1 receptor [3]; [5]) | half-life (in vivo) | half-life ([2]; 2 nmol/kg)
CC[C@H](C)[C@H](NC(=O)[C@H](Cc1ccccc1)NC(=O)[C@H](CCC(=O)O)NC(=O)[C@H](CCCNC(=N)N)NC(=O)[C@H](C)NC(=O)[C@H](C)NC(=O)[C@H](CCC(N)=O)NC(=O)[C@H](CCC(=O)O)NC(=O)[C@H](CCC(=O)O)NC(=O)[C@H](CC(C)C)NC(=O)[C@H](Cc1ccc(O)cc1)NC(=O)[C@H](CO)NC(=O)[C@H](CO)NC(=O)[C@@H](NC(=O)[C@H](CC(=O)O)NC(=O)[C@H](CO)NC(=O)[C@@H](NC(=O)[C@H](Cc1ccccc1)NC(=O)[C@@H](NC(=O)CNC(=O)[C@H](CCC(=O)O)NC(=O)C(C)(C)NC(=O)[C@@H](N)Cc1c[nH]cn1)[C@@H](C)O)[C@@H](C)O)C(C)C)C(=O)N[C@@H](C)C(=O)N[C@@H](Cc1c[nH]c2ccccc12)C(=O)N[C@@H](CC(C)C)C(=O)N[C@H](C(=O)N[C@@H](CCCNC(=N)N)C(=O)NCC(=O)N[C@@H](CCCNC(=N)N)C(=O)N[C@@H](CCCCNC(=O)CN(CCCNC(=O)COCCOCCNC(=O)COCCOCCNC(=O)COCCOCCNC(=O)COCCOCCNC(=O)COCCOCCNC(=O)COCCOCCNC(=O)CC[C@H](NC(=O)[C@H]1CC[C@H](CNC(=O)CCCCCCCCCCCCCCCCCCC(=O)O)CC1)C(=O)O)CCCNC(=O)COCCOCCNC(=O)COCCOCCNC(=O)COCCOCCNC(=O)COCCOCCNC(=O)COCCOCCNC(=O)COCCOCCNC(=O)CC[C@H](NC(=O)[C@H]1CC[C@H](CNC(=O)CCCCCCCCCCCCCCCCCCC(=O)O)CC1)C(=O)O)C(=O)O)C(C)C [Example 3] | 0.02 nM | 159 h | 0.41 nM | 22 nM | – | – | –
CC[C@H](C)[C@H](NC(=O)[C@H](Cc1ccccc1)NC(=O)[C@H](CCC(=O)O)NC(=O)[C@H](CCCNC(=N)N)NC(=O)[C@H](C)NC(=O)[C@H](C)NC(=O)[C@H](CCC(N)=O)NC(=O)[C@H](CCC(=O)O)NC(=O)[C@H](CCC(=O)O)NC(=O)[C@H](CC(C)C)NC(=O)[C@H](Cc1ccc(O)cc1)NC(=O)[C@H](CO)NC(=O)[C@H](CO)NC(=O)[C@@H](NC(=O)[C@H](CC(=O)O)NC(=O)[C@H](CO)NC(=O)[C@@H](NC(=O)[C@H](Cc1ccccc1)NC(=O)[C@@H](NC(=O)CNC(=O)[C@H](CCC(=O)O)NC(=O)C(C)(C)NC(=O)[C@@H](N)Cc1c[nH]cn1)[C@@H](C)O)[C@@H](C)O)C(C)C)C(=O)N[C@@H](C)C(=O)N[C@@H](Cc1c[nH]c2ccccc12)C(=O)N[C@@H](CC(C)C)C(=O)N[C@H](C(=O)N[C@@H](CCCNC(=N)N)C(=O)NCC(=O)N[C@@H](CCCNC(=N)N)C(=O)N[C@@H](CCCCNC(=O)CN(CCCNC(=O)CCOCCOCCOCCOCCOCCOCCOCCOCCOCCOCCOCCOCCOCCOCCOCCOCCOCCOCCOCCOCCOCCOCCOCCOCCNC(=O)[C@@H](N)CCCCNC(=O)[C@@H](N)CCCCNC(=O)CCCCCCCCCCCCCCCCCCC(=O)O)CCCNC(=O)CCOCCOCCOCCOCCOCCOCCOCCOCCOCCOCCOCCOCCOCCOCCOCCOCCOCCOCCOCCOCCOCCOCCOCCOCCNC(=O)[C@@H](N)CCCCNC(=O)[C@@H](N)CCCCNC(=O)CCCCCCCCCCCCCCCCCCC(=O)O)C(=O)O)C(C)C [Example 6] | 0.0072 nM | – | – | 9 nM | 0.05 nM | 143 h | –
CC[C@H](C)[C@H](NC(=O)[C@H](Cc1ccccc1)NC(=O)[C@H](CCC(=O)O)NC(=O)[C@H](CCCNC(=N)N)NC(=O)[C@H](C)NC(=O)[C@H](C)NC(=O)[C@H](CCC(N)=O)NC(=O)[C@H](CCC(=O)O)NC(=O)[C@H](CCC(=O)O)NC(=O)[C@H](CC(C)C)NC(=O)[C@H](Cc1ccc(O)cc1)NC(=O)[C@H](CO)NC(=O)[C@H](CO)NC(=O)[C@@H](NC(=O)[C@H](CC(=O)O)NC(=O)[C@H](CO)NC(=O)[C@@H](NC(=O)[C@H](Cc1ccccc1)NC(=O)[C@@H](NC(=O)CNC(=O)[C@H](CCC(=O)O)NC(=O)C(C)(C)NC(=O)[C@@H](N)Cc1c[nH]cn1)[C@@H](C)O)[C@@H](C)O)C(C)C)C(=O)N[C@@H](C)C(=O)N[C@@H](Cc1c[nH]c2ccccc12)C(=O)N[C@@H](CC(C)C)C(=O)N[C@H](C(=O)N[C@@H](CCCNC(=N)N)C(=O)NCC(=O)N[C@@H](CCCNC(=N)N)C(=O)N1CCC[C@H]1C(=O)N[C@@H](CCCCNC(=O)CN(CCCNC(=O)COCCOCCNC(=O)COCCOCCNC(=O)COCCOCCNC(=O)COCCOCCNC(=O)COCCOCCNC(=O)COCCOCCNC(=O)CC[C@H](NC(=O)[C@H]1CC[C@H](CNC(=O)CCCCCCCCCCCCCCCCCCC(=O)O)CC1)C(=O)O)CCCNC(=O)COCCOCCNC(=O)COCCOCCNC(=O)COCCOCCNC(=O)COCCOCCNC(=O)COCCOCCNC(=O)COCCOCCNC(=O)CC[C@H](NC(=O)[C@H]1CC[C@H](CNC(=O)CCCCCCCCCCCCCCCCCCC(=O)O)CC1)C(=O)O)C(=O)O)C(C)C [Example 10] (H-H[Aib]EGTFTSDVSSYLEEQAAREFIAWLVRGRPK(X1)-OH; N-terminus and C-terminus assumed) | – | – | – | – | – | – | 151 h
CC[C@H](C)[C@H](NC(=O)[C@H](Cc1ccccc1)NC(=O)[C@H](CCC(=O)O)NC(=O)[C@H](CCCNC(=N)N)NC(=O)[C@H](C)NC(=O)[C@H](C)NC(=O)[C@H](CCC(N)=O)NC(=O)[C@H](CCC(=O)O)NC(=O)[C@H](CCC(=O)O)NC(=O)[C@H](CC(C)C)NC(=O)[C@H](Cc1ccc(O)cc1)NC(=O)[C@H](CO)NC(=O)[C@H](CO)NC(=O)[C@@H](NC(=O)[C@H](CC(=O)O)NC(=O)[C@H](CO)NC(=O)[C@@H](NC(=O)[C@H](Cc1ccccc1)NC(=O)[C@@H](NC(=O)CNC(=O)[C@H](CCC(=O)O)NC(=O)C(C)(C)NC(=O)[C@@H](N)Cc1c[nH]cn1)[C@@H](C)O)[C@@H](C)O)C(C)C)C(=O)N[C@@H](C)C(=O)N[C@@H](Cc1c[nH]c2ccccc12)C(=O)N[C@@H](CC(C)C)C(=O)N[C@H](C(=O)N[C@@H](CCCNC(=N)N)C(=O)NCC(=O)N[C@@H](CCCNC(=N)N)C(=O)N[C@@H](CCCCNC(=O)COCCOCCNC(=O)COCCOCCNC(=O)COCCOCCNC(=O)COCCOCCNC(=O)COCCOCCNC(=O)COCCOCCNC(=O)CN(CCCNC(=O)CC[C@H](NC(=O)CCCCCCCCCCCCCCCCCCC(=O)O)C(=O)O)CCCNC(=O)CC[C@H](NC(=O)CCCCCCCCCCCCCCCCCCC(=O)O)C(=O)O)C(=O)O)C(C)C [Example 26, N{Epsilon-37}-[2-[2-[2-[[2-[2-[2-[[2-[2-[2-[[2-[2-[2-[[2-[2-[2-[[2-[2-[2-[[2-[bis[3-[[(4S)-4-carboxy-4-(19-carboxynonadecanoylamino)butanoyl]amino]propyl]amino]acetyl]amino]ethoxy]ethoxy]acetyl]amino]ethoxy]ethoxy]acetyl]amino]ethoxy]ethoxy]acetyl]amino]ethoxy]ethoxy]acetyl]amino]ethoxy]ethoxy]acetyl]amino]ethoxy]ethoxy]acetyl]-[Aib8,Glu22,Arg26,Arg34,Lys37]-GLP-1-(7-37)-peptide] | – | – | – | 29 nM | 0.36 nM | 131 h | –
CC[C@H](C)[C@H](NC(=O)[C@H](Cc1ccccc1)NC(=O)[C@H](CCC(=O)O)NC(=O)[C@H](CCCNC(=N)N)NC(=O)[C@H](C)NC(=O)[C@H](C)NC(=O)[C@H](CCC(N)=O)NC(=O)[C@H](CCC(=O)O)NC(=O)[C@H](CCC(=O)O)NC(=O)[C@H](CC(C)C)NC(=O)[C@H](Cc1ccc(O)cc1)NC(=O)[C@H](CO)NC(=O)[C@H](CO)NC(=O)[C@@H](NC(=O)[C@H](CC(=O)O)NC(=O)[C@H](CO)NC(=O)[C@@H](NC(=O)[C@H](Cc1ccccc1)NC(=O)[C@@H](NC(=O)CNC(=O)[C@H](CCC(=O)O)NC(=O)C(C)(C)NC(=O)[C@@H](N)Cc1c[nH]cn1)[C@@H](C)O)[C@@H](C)O)C(C)C)C(=O)N[C@@H](C)C(=O)N[C@@H](Cc1c[nH]c2ccccc12)C(=O)N[C@@H](CC(C)C)C(=O)N[C@H](C(=O)N[C@@H](CCCNC(=N)N)C(=O)NCC(=O)N[C@@H](CCCNC(=N)N)C(=O)N[C@@H](CCCCNC(=O)COCCOCCNC(=O)COCCOCCNC(=O)COCCOCCNC(=O)COCCOCCNC(=O)CN(CCCNC(=O)CC[C@H](NC(=O)[C@H]1CC[C@H](CNC(=O)CCCCCCCCCCCCCCCCCCC(=O)O)CC1)C(=O)O)CCCNC(=O)CC[C@H](NC(=O)[C@H]1CC[C@H](CNC(=O)CCCCCCCCCCCCCCCCCCC(=O)O)CC1)C(=O)O)C(=O)O)C(C)C [Example 27, N{Epsilon-37}-[2-[2-[2-[[2-[2-[2-[[2-[2-[2-[[2-[2-[2-[[2-[bis[3-[[(4S)-4-carboxy-4-[[4-[(19-carboxynonadecanoylamino)methyl]cyclohexanecarbonyl]amino]butanoyl]amino]propyl]amino]acetyl]amino]ethoxy]ethoxy]acetyl]amino]ethoxy]ethoxy]acetyl]amino]ethoxy]ethoxy]acetyl]amino]ethoxy]ethoxy]acetyl]-[Aib8,Glu22,Arg26,Arg34,Lys37]-GLP-1-(7-37)-peptide] | – | – | – | – | – | – | 138 h
